In general, IC50 refers to the midpoint of a concentration-inhibition curve. In general, GI50 refers to the concentration that inhibits growth by half. In general, logD refers to lipophilicity at a set pH, counting ionised and neutral species. A higher logD goes with higher lipophilicity. The half-life is the time in which the quantity being followed falls by half. In general, CLint scaled refers to a measure of how fast metabolising enzymes remove a compound, apart from limits set by blood flow. A higher CLint scaled goes with faster metabolism. As a reminder, the inhibition is the change of the read-out against control, counted positive when it falls.

Seven molecules from ChEMBL document CHEMBL5032528, “Development of novel tetrahydroisoquinoline-hydroxamate conjugates as potent dual SERDs/HDAC inhibitors for the treatment of breast cancer” (Eur J Med Chem, 2021) can be followed below.

The target of series [1] is T1, Estrogen receptor (Homo sapiens, UniProt P03372).
T1 sequence (P03372 whole entry): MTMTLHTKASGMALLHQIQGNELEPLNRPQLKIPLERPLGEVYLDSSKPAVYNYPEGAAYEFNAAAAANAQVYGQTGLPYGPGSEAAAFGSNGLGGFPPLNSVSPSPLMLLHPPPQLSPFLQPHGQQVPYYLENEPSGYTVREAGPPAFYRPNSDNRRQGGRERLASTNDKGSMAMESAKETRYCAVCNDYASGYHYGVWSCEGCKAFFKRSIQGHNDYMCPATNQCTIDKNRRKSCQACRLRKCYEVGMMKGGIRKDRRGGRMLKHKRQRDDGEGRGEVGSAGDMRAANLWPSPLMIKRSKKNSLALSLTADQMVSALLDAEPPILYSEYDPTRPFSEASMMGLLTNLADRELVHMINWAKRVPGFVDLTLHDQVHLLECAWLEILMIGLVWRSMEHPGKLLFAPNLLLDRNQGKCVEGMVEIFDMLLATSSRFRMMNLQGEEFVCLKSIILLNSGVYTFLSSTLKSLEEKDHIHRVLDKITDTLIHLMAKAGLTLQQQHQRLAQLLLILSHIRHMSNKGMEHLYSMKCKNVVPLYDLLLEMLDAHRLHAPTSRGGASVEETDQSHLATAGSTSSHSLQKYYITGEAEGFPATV
The series can be described thus: Displacement of fluorescent estradiol from full-length ERalpha (unknown origin) measured after 2 hrs by fluorescence polarization assay. For orientation: Polarisation of emitted light reports the rotation of a fluorescent probe.

The subject of series [2] is MCF7. The series can be described thus: Antiproliferative activity against human MCF7 cells assessed as reduction in cell growth measured after 6 days by WST8 assay. It is filed as functional. As to conditions: time 6 day. A general note: Tetrazolium assays rely on reduction of a dye to a coloured formazan, in cell work by metabolically active cells.
The target of series [3] is T2, Estrogen receptor (Homo sapiens) (UniProt P03372).
T2 sequence (whole entry): T1 sequence (P03372 whole entry)
The series can be described thus: Induction of ERalpha degradation in human MCF7 cells at 0.1 uM measured after 24 hrs by Western blot analysis. The format is cell-based. Background: A western blot detects proteins with antibodies after separation by electrophoresis.

For series [4], the target named is T3, Protein deacetylase HDAC6 (Homo sapiens, UniProt Q9UBN7).
T3 sequence (Q9UBN7 whole entry): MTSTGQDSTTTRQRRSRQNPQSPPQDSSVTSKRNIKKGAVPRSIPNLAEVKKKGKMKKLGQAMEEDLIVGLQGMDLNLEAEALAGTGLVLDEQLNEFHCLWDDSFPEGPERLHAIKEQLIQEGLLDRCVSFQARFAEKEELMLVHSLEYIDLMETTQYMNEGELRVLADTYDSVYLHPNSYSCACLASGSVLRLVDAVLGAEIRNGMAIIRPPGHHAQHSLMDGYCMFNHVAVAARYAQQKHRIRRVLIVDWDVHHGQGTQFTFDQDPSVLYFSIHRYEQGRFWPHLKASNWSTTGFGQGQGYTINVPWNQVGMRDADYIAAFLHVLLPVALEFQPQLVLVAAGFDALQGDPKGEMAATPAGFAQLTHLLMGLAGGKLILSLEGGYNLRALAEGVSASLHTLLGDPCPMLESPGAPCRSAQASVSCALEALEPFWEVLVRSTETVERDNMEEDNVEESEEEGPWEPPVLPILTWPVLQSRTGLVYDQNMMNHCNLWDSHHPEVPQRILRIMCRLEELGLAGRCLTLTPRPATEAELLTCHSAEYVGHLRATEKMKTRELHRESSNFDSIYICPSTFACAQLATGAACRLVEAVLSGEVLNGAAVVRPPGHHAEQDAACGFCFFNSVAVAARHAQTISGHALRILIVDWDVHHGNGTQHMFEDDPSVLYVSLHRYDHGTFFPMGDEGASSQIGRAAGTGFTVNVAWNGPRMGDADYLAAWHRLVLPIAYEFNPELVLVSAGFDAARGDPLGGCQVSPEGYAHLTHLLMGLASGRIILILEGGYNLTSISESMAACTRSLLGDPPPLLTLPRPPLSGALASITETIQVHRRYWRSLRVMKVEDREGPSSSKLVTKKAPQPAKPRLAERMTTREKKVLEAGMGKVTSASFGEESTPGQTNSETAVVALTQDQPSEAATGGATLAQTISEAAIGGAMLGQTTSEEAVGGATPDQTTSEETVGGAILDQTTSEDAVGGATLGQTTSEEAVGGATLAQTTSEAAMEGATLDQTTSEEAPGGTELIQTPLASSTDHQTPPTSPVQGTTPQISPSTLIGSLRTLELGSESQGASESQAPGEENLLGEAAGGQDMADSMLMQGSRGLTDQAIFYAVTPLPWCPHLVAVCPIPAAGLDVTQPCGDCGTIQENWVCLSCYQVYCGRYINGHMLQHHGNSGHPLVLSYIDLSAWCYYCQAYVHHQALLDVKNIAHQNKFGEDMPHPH
Briefly: Inhibition of HDAC6 (unknown origin) using Ac-peptide as substrate preincubated for 15 mins followed by substrate addition and measured after 60 mins by fluorescence assay.

The test system of series [5] is Ishikawa. Briefly: Induction of human ishikawa cells proliferation at 300 nM measured after 48 hrs by CCK8 assay. It is filed as functional.
Series [6] is described as follows: Lipophilicity, logD of compound in n-octanol and phosphate buffer at pH 7.4 after 1.5 hrs by HPLC analysis. It is filed as physicochemical.
The nature of series [7]: Stability in human liver microsomes assessed as half life. The format is ADME, Microsome.
The nature of series [8]: in vitro. The settings on record: human, liver microsomes.
Series [9] has as its target Histone deacetylase 1 (Homo sapiens, UniProt Q13547). The series can be described thus: Inhibition of HDAC1 (unknown origin).
Series [10] has as its target Histone deacetylase 4 (Homo sapiens, UniProt P56524). The series can be described thus: Inhibition of HDAC4 (unknown origin).
Series [11] concerns the target T2, Estrogen receptor (Homo sapiens). The series can be described thus: Inhibition of ERalpha signaling in human MCF7 cells measured after 24 hrs by Western blot assay. The format is cell-based. The settings on record: dose 10-10000 nM.
Series [12] concerns MCF7. The series can be described thus: Antitumor activity against human MCF7 cells xenografted in BALB/c nude mouse assessed as TGI at 5 mg/kg/day, iv administered for 21 days. The settings on record: 504 h, time 21 day, read-out: TGI. The format is functional.
For series [13], the target named is T4, Protein deacetylase HDAC6 (Homo sapiens) (UniProt Q9UBN7).
T4 sequence (whole entry): T3 sequence (Q9UBN7 whole entry)
The series can be described thus: Inhibition of HDAC6 in human MCF7 cells assessed as increase in intracellular acetylation level of alpha-tubulin after 24 hrs by Western blot analysis. The format is cell-based. As to conditions: dose 10-1000 nM.

Series [14] addresses T2, Estrogen receptor (Homo sapiens). The series can be described thus: Antagonist activity at ERalpha in human MCF7 cells assessed as reduction in E2-induced PGR gene expression incubated for 24 hrs by qRT-PCR analysis. The format is cell-based. The settings on record: filed as antagonist, dose 3-300 nM.
Series [15] shares this target. Briefly: Antagonist activity at ERalpha in human MCF7 cells assessed as reduction in E2-induced GREB1 gene expression incubated for 24 hrs by qRT-PCR analysis. The format is cell-based. As to conditions: filed as antagonist, dose 3-300 nM.
In series [16] the test system is MCF7. The series can be described thus: Induction of apoptosis in human MCF7 cells at 0.1 uM incubated for 24 hrs by PI staining based flow cytometry analysis. It is filed as functional, cell-based.
Series [17] has as its target T2, Estrogen receptor (Homo sapiens). The series can be described thus: Antagonist activity at ERalpha activity in human ishikawa cells assessed as reduction in PGR mRNA expression at 10 to 300 nM for 24 hrs. The format is cell-based. As to conditions: filed as antagonist, dose 10-300 nM.
Series [18] deals with Ishikawa. The series can be described thus: Induction of human ishikawa cells proliferation at 39 to 10000 nM measured after 48 hrs by CCK8 assay. It is filed as functional. The settings on record: dose 39-10000 nM.
Series [19] relates to MDA-MB-231. Briefly: Antiproliferative activity against human MDA-MB-231 cells assessed as reduction in cell growth measured after 2 days by CCK8 assay. The format is functional, cell-based. As to conditions: MDA-MB-231, 48 h.
Series [20] has as its target Histone deacetylase (Homo sapiens) (UniProt Q13547+O15379+Q9UBN7+Q92769+Q9UQL6+Q8WUI4+Q9BY41+Q96DB2+P56524+Q9UKV0+Q969S8). Briefly: Inhibition of HDAC in human MDA-MB-231 cells assessed as increase in alpha tubulin acetylation after 24 hrs by immunofluorescence assay. It is filed as cell-based. The settings on record: dose 5.0 µM.
Series [21] concerns MDA-MB-231. Briefly: Antimigratory activity against human MDA-MB-231 cells measured after 48 hrs by scratch wound-healing assay. The format is functional, cell-based.
A short description of series [22]: Stability in human plasma assessed as half life. The format is ADME, cell-free.
A short description of series [23]: Toxicity in Balb/c mouse xenografted with human MCF7 cells assessed as body weight loss at 5 mg/kg/day, iv administered for 21 days. As to conditions: in vivo, 504 h, time 21 day. It is filed as organism-based.
Series [24] deals with Mus musculus. The series can be described thus: In vivo induction of ERalpha degradation in human […] cells xenografted in BALB/c mouse assessed as decrease in ERalpha level at 5 mg/kg/day, iv administered for 21 days by Western blot analysis. It is filed as functional, organism-based. As to conditions: time 21.0 day.
In series [25] the target is T2, Estrogen receptor (Homo sapiens). Briefly: Inhibition of ERalpha signaling in human MCF7 cells at 1 uM measured after 24 hrs by Western blot assay. It is filed as cell-based.
Series [26] shares this target. Briefly: Inhibition of ERalpha signaling in human MCF7 cells at 10 uM measured after 24 hrs by Western blot assay. It is filed as cell-based.
A short description of series [27]: Toxicity in Balb/c mouse xenografted with human MCF7 cells assessed as change in organ morphology at 5 mg/kg/day, iv administered for 21 days by H and E staining based analysis. The format is organism-based. The settings on record: in vivo, 504 h, time 21 day.

The source made the active and inactive calls. The rule behind the calls is not given here.

Histone deacetylase 1, sequence (Q13547 whole entry): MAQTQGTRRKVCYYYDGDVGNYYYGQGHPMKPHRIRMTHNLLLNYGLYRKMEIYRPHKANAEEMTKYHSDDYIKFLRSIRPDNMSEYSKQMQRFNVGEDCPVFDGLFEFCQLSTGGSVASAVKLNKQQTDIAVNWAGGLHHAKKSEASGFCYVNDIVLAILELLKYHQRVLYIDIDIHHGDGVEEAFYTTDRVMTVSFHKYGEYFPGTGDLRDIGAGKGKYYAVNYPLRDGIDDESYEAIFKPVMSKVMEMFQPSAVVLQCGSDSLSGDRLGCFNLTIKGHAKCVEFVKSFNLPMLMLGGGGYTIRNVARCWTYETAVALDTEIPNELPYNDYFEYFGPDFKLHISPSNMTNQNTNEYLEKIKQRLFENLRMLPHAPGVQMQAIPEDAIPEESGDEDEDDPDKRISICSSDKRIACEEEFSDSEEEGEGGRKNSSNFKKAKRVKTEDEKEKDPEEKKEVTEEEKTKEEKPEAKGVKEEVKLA
Histone deacetylase 4, sequence (P56524 whole entry): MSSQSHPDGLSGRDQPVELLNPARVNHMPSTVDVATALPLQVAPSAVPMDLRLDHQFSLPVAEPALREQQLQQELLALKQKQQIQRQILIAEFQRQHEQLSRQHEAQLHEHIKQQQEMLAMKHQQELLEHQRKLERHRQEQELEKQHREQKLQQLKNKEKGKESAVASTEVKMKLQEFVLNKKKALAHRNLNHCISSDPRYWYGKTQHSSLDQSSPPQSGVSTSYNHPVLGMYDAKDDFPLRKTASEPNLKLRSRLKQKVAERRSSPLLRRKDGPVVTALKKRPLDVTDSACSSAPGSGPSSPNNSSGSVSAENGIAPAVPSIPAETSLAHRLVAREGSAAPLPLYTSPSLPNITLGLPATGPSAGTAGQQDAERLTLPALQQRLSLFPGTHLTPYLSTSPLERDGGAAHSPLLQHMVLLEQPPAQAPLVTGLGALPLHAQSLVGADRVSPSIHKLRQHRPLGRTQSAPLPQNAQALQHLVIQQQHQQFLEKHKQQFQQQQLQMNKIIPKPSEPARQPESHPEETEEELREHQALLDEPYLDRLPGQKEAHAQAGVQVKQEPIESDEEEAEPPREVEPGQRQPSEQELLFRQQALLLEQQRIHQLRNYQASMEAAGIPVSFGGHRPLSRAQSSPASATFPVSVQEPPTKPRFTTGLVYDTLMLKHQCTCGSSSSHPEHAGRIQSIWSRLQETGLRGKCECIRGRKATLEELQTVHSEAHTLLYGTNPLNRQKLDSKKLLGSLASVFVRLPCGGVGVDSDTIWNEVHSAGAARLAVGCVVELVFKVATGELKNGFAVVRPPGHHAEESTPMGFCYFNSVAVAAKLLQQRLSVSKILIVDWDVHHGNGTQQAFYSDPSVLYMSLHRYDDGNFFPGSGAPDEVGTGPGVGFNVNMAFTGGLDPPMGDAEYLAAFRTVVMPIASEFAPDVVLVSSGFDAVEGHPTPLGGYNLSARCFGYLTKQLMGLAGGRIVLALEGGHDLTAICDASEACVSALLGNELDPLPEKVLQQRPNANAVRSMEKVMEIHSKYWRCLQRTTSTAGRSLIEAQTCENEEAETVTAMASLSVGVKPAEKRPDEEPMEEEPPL

In turn, `CC(C)(F)CN1CCc2cc(O)ccc2C1c1ccc(OCCCOc2ccc(C(=O)NO)cc2)cc1` (stereo unspecified) yielded an IC50 in series [1] of 132 nM. Besides, in series [2] (Homo sapiens, MCF7, 144 h), the concentration for 50% growth inhibition (GI50) turned out to be 460 nM. In series [3], the result was inactive.

For the molecule `CC(C)(F)CN1CCc2cc(O)ccc2C1c1ccc(OC2CN(CC(=O)NO)C2)cc1` (stereo unspecified), the IC50 in series [4] worked out at 175 nM; in series [1] it was 78.2 nM. The GI50 in series [2] (Homo sapiens, MCF7, 144 h) came out at 1820 nM. In addition, the Activity in series [3] was 32%.

Regarding `O=C(CCCCCCC(=O)Nc1ccccc1)NO` [VORINOSTAT], the concentration for 50% growth inhibition (GI50) in [2] was found to be 1250 nM.

`C[C@]12CC[C@@H]3c4ccc(O)cc4C[C@@H](CCCCCCCCC[S+]([O-])CCCC(F)(F)C(F)(F)F)[C@H]3[C@@H]1CC[C@@H]2O` (stereo partly specified) [FULVESTRANT]: in series [2] (Homo sapiens, MCF7, 144 h), the GI50 worked out at 540 nM. For the same molecule, the result in [5] was Active. The molecule also displayed a logD at 1.5 h in series [6] of 6.8. The half-life in [7] was 1.56 min. The CLint scaled in series [8] came out at 1150 mL/min/kg.

Regarding `CC(C)(F)CN1CCc2cc(O)ccc2C1c1ccc(OCCCCCCC(=O)NO)cc1` (stereo unspecified), the IC50 in series [4] is 62.8 nM; in series [9], 582 nM; in series [10] it was > 1000 nM; in [1], 90.8 nM; in series [19], 380 nM. The inhibition entry was “Dose-Dependent Effect” in [11], “Dose-Dependent Effect” in series [13], “Dose-Dependent Effect” in series [20] and 100% in series [26]. For the same molecule, the concentration for 50% growth inhibition (GI50) in series [2] (Homo sapiens, MCF7, 144 h) came to 170 nM. Further, the Activity in series [3] was 57%; in series [14], “Dose-Dependent Effect”; in [15], “Dose-Dependent Effect”; in series [23], “Non-Toxic”; in series [27] it was “Non-Toxic”. In addition, the inhibition in vivo at 5 mg/kg/day in series [12] turned out to be 58%. The outcome in [16], in series [17] and in series [21] was Active. The result in series [18] was inactive. In [6], this molecule returned a logD at 1.5 h of 2.49. The half-life in series [7] is 18.8 min; in [22] it was 458 min. Also, the inhibition result in series [24] and in series [25] was “Active” each time. This molecule also registered a CLint scaled in series [8] of 132 mL/min/kg.

Consider `CC(C)(F)CN1CCc2cc(O)ccc2C1c1ccc(OCCCCCC(=O)NO)cc1` (stereo unspecified), for which the IC50 came to 65.9 nM in series [4] and 102 nM in series [1]. Moreover, the GI50 in series [2] (Homo sapiens, MCF7, 144 h) was determined as 950 nM. In series [3], the Activity stood at 31%.

`CC(C)(F)CN1CCc2cc(O)ccc2C1c1ccc(C(=O)NO)cc1` (stereo unspecified) gave an IC50 in series [1] of 96.3 nM. The GI50 in series [2] (Homo sapiens, MCF7, 144 h) was determined as 230 nM. This molecule also gave an Activity in [3] of 5%.
